# In PubChem BioAssay (NCI):
#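 Cultured in 96-well plates, cells were exposed to test compound for 48 hours across five concentrations. GI50 = concentration required for 50% inhibition of growth. Definition used: TGI = concentration required for complete inhibition of growth.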
# How the values were obtained:
# Assay in all cases: NCI anticancer screen, dose series, 48 h
# 786-0 renal = tested on: 786-0 renal
# A498 renal = tested on: A498 renal
# A549 NSCLC = tested on: A549 NSCLC
# ACHN renal = tested on: ACHN renal
# BT-549 breast = tested on: BT-549 breast
# CAKI-1 renal = tested on: CAKI-1 renal
# CCRF-CEM leukemia = tested on: CCRF-CEM leukemia
# COLO 205 colon = tested on: COLO 205 colon
# DU-145 prostate = tested on: DU-145 prostate
# HCC-2998 colon = tested on: HCC-2998 colon
# HCT-116 colon = tested on: HCT-116 colon
# HCT-15 colon = tested on: HCT-15 colon
# HL-60(TB) leukemia = tested on: HL-60(TB) leukemia
# HOP-62 NSCLC = tested on: HOP-62 NSCLC
# HOP-92 NSCLC = tested on: HOP-92 NSCLC
# HS 578T breast = tested on: HS 578T breast
# HT29 colon = tested on: HT29 colon
# IGROV1 ovarian = tested on: IGROV1 ovarian
# K-562 leukemia = tested on: K-562 leukemia
# KM12 colon = tested on: KM12 colon
# LOX IMVI melanoma = tested on: LOX IMVI melanoma
# M14 melanoma = tested on: M14 melanoma
# MALME-3M melanoma = tested on: MALME-3M melanoma
# MCF7 breast = tested on: MCF7 breast
# MDA-MB-231 breast = tested on: MDA-MB-231 breast
# MDA-MB-435 = tested on: MDA-MB-435
# MOLT-4 leukemia = tested on: MOLT-4 leukemia
# NCI-H226 lung = tested on: NCI-H226 lung
# NCI-H23 lung = tested on: NCI-H23 lung
# NCI-H460 lung = tested on: NCI-H460 lung
# NCI-H522 lung = tested on: NCI-H522 lung
# NCI/ADR-RES ovarian = tested on: NCI/ADR-RES ovarian
# OVCAR-3 ovarian = tested on: OVCAR-3 ovarian
# OVCAR-4 ovarian = tested on: OVCAR-4 ovarian
# OVCAR-5 ovarian = tested on: OVCAR-5 ovarian
# OVCAR-8 ovarian = tested on: OVCAR-8 ovarian
# PC-3 prostate = tested on: PC-3 prostate
# RPMI-8226 leukemia = tested on: RPMI-8226 leukemia
# RXF 393 renal = tested on: RXF 393 renal
# SF-268 CNS = tested on: SF-268 CNS
# SF-295 CNS = tested on: SF-295 CNS
# SF-539 CNS = tested on: SF-539 CNS
# SK-MEL-5 melanoma = tested on: SK-MEL-5 melanoma
# SK-OV-3 ovarian = tested on: SK-OV-3 ovarian
# SN12C renal = tested on: SN12C renal
# SNB-19 CNS = tested on: SNB-19 CNS
# SR leukemia = tested on: SR leukemia
# SW-620 colon = tested on: SW-620 colon
# TK-10 renal = tested on: TK-10 renal
# U251 CNS = tested on: U251 CNS
# UACC-257 melanoma = tested on: UACC-257 melanoma
# UACC-62 melanoma = tested on: UACC-62 melanoma
# UO-31 renal = tested on: UO-31 renal
smiles,measurement,setting,value
N#CC1=C(N)Oc2c(ccc3ccccc23)C1c1cccs1 (stereo unspecified),GI50,786-0 renal,57.7 nM
same,TGI,786-0 renal,11500 nM
same,GI50,A498 renal,23.2 nM
same,TGI,A498 renal,84.3 nM
same,GI50,A549 NSCLC,61.5 nM
same,TGI,A549 NSCLC,14000 nM
same,GI50,ACHN renal,84 nM
same,TGI,ACHN renal,14800 nM
same,GI50,BT-549 breast,68.8 nM
same,TGI,BT-549 breast,3090 nM
same,GI50,CAKI-1 renal,46.5 nM
same,TGI,CAKI-1 renal,16100 nM
same,GI50,CCRF-CEM leukemia,33.7 nM
same,TGI,CCRF-CEM leukemia,11400 nM
same,GI50,COLO 205 colon,71.6 nM
same,TGI,COLO 205 colon,591 nM
same,GI50,DU-145 prostate,46.3 nM
same,TGI,DU-145 prostate,1030 nM
same,GI50,HCC-2998 colon,132 nM
same,TGI,HCC-2998 colon,3890 nM
same,GI50,HCT-116 colon,50.2 nM
same,TGI,HCT-116 colon,1830 nM
same,GI50,HCT-15 colon,44.2 nM
same,TGI,HCT-15 colon,10900 nM
same,GI50,HL-60(TB) leukemia,28.3 nM
same,TGI,HL-60(TB) leukemia,79.3 nM
same,GI50,HOP-62 NSCLC,58.3 nM
same,TGI,HOP-62 NSCLC,18500 nM
same,GI50,HOP-92 NSCLC,57.3 nM
same,TGI,HOP-92 NSCLC,14100 nM
same,GI50,HS 578T breast,30.2 nM
same,TGI,HS 578T breast,14100 nM
same,GI50,HT29 colon,53.6 nM
same,TGI,HT29 colon,1120 nM
same,GI50,IGROV1 ovarian,82.5 nM
same,TGI,IGROV1 ovarian,15800 nM
same,GI50,K-562 leukemia,32.1 nM
same,TGI,K-562 leukemia,12000 nM
same,GI50,KM12 colon,43.4 nM
same,TGI,KM12 colon,3450 nM
same,GI50,LOX IMVI melanoma,79.8 nM
same,TGI,LOX IMVI melanoma,14000 nM
same,GI50,M14 melanoma,40.5 nM
same,TGI,M14 melanoma,11900 nM
same,GI50,MALME-3M melanoma,38 nM
same,TGI,MALME-3M melanoma,24300 nM
same,GI50,MCF7 breast,35.4 nM
same,TGI,MCF7 breast,13900 nM
same,GI50,MDA-MB-231 breast,140 nM
same,TGI,MDA-MB-231 breast,2720 nM
same,GI50,MDA-MB-435,16.8 nM
same,TGI,MDA-MB-435,42 nM
same,GI50,MOLT-4 leukemia,59.4 nM
same,TGI,MOLT-4 leukemia,14600 nM
same,GI50,NCI-H226 lung,1060 nM
same,TGI,NCI-H226 lung,19000 nM
same,GI50,NCI-H23 lung,62.8 nM
same,TGI,NCI-H23 lung,12700 nM
same,GI50,NCI-H460 lung,36 nM
same,TGI,NCI-H460 lung,662 nM
same,GI50,NCI-H522 lung,18.5 nM
same,TGI,NCI-H522 lung,84.6 nM
same,GI50,NCI/ADR-RES ovarian,36.8 nM
same,TGI,NCI/ADR-RES ovarian,6070 nM
same,GI50,OVCAR-3 ovarian,26.9 nM
same,TGI,OVCAR-3 ovarian,70.4 nM
same,GI50,OVCAR-4 ovarian,430 nM
same,TGI,OVCAR-4 ovarian,18700 nM
same,GI50,OVCAR-5 ovarian,129 nM
same,TGI,OVCAR-5 ovarian,16500 nM
same,GI50,OVCAR-8 ovarian,55 nM
same,TGI,OVCAR-8 ovarian,12100 nM
same,GI50,PC-3 prostate,41 nM
same,TGI,PC-3 prostate,15000 nM
same,GI50,RPMI-8226 leukemia,32.9 nM
same,TGI,RPMI-8226 leukemia,3600 nM
same,GI50,RXF 393 renal,31.3 nM
same,TGI,RXF 393 renal,21800 nM
same,GI50,SF-268 CNS,80.7 nM
same,TGI,SF-268 CNS,10100 nM
same,GI50,SF-295 CNS,51.1 nM
same,TGI,SF-295 CNS,17000 nM
same,GI50,SF-539 CNS,26 nM
same,TGI,SF-539 CNS,69.6 nM
same,GI50,SK-MEL-5 melanoma,42.7 nM
same,TGI,SK-MEL-5 melanoma,5200 nM
same,GI50,SK-OV-3 ovarian,56.5 nM
same,TGI,SK-OV-3 ovarian,14700 nM
same,GI50,SN12C renal,81.6 nM
same,TGI,SN12C renal,12900 nM
same,GI50,SNB-19 CNS,321 nM
same,TGI,SNB-19 CNS,20700 nM
same,GI50,SR leukemia,33.7 nM
same,TGI,SR leukemia,7810 nM
same,GI50,SW-620 colon,36.6 nM
same,TGI,SW-620 colon,15200 nM
same,GI50,TK-10 renal,66.9 nM
same,TGI,TK-10 renal,20200 nM
same,GI50,U251 CNS,40.7 nM
same,TGI,U251 CNS,11300 nM
same,GI50,UACC-257 melanoma,51.4 nM
same,TGI,UACC-257 melanoma,22200 nM
same,GI50,UACC-62 melanoma,64.7 nM
same,TGI,UACC-62 melanoma,15200 nM
same,GI50,UO-31 renal,69.6 nM
same,TGI,UO-31 renal,17500 nM
